Source: patent US9670261B2 (Sanofi, priority 2012, dated 2017)
*1 amine or outer side, *2 acyl side, *3 side chain or, on linkers, in order; H or OH if unused. Where a SMILES comes first, the peptide text is derived from it. Side-chain parts run from the residue outwards. [ ]: non-standard residue; d: D form. The star is where a group is joined. γGlu = O=C(O)[C@H](CCC(=O)[*:2])N[*:1]; Palmitoyl = CCCCCCCCCCCCCCCC(=O)*; Aib = CC(C)(N)C(=O)O

Legend:
[1] = target: T1, human GIP receptor (Homo sapiens, UniProt P48546); assay: cAMP response (HTRF) of HEK-293 cells stably expressing human GIP receptor; format: cell-based; conditions: Table 7; cAMP formation; read-out: EC50 hGIP R
T1 construct: expressed in transfected cells
T1 sequence (P48546 22-466): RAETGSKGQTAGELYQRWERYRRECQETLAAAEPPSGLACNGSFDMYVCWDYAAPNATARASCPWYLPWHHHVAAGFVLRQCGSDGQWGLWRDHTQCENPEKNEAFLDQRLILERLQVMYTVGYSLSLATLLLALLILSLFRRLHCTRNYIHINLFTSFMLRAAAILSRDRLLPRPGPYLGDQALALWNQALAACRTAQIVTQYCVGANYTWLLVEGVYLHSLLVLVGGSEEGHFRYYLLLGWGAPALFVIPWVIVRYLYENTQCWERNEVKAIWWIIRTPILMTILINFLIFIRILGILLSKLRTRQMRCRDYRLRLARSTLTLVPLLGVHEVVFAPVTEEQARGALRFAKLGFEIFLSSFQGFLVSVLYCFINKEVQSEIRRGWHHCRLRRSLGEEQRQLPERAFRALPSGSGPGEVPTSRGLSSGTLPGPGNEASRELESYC
Summary of the method: (§1)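 HTRF read-out of cellular cAMP after 30 min compound exposure at room temperature. Accutase-detached cells were suspended at 400000 cells/ml in HBSS buffer containing 20 mM HEPES, 0.1% BSA and 2 mM IBMX phosphodiesterase inhibitor.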

[2] = target: T2, human GLP-1 receptor (Homo sapiens, UniProt P43220); assay: cAMP response (HTRF) of HEK-293 cells stably expressing human GLP-1 receptor; format: cell-based; conditions: Table 7; cAMP formation; read-out: EC50 hGLP-1 R
T2 construct: expressed in transfected cells
Summary of the method: as §1

[3] = system: female diet-induced obese (DIO) C57BL/6NCrl mice; assay: Blood glucose and body weight in DIO mice, 18 weeks on high-fat diet (method 1); format: in vivo; conditions: for decrease of body weight, relative change from baseline: 4 weeks; for Bodyfat change / Overall weight change: 4-week treatment, mean ± SEM
Description: Female C57BL/6NCrl mice were housed in groups in a specific pathogen-free barrier facility on a 12 h light/dark cycle with free access to water and high-fat diet. After 18 weeks on high-fat diet, mice were stratified to treatment groups (n=8), so that each group had similar mean body weight. An aged-matched group with ad libitum access to standard chow was included as standard control group.
Before the experiment, mice were subcutaneously (s.c.) injected with vehicle solution and weighed for 3 days to acclimate them to the procedures.
The volume of administration was 5 mL/kg. The animals had access to water and their corresponding diet during the experiment, food consumption was determined at all time points of blood sampling. Blood glucose levels were measured at t=0.5 h, t=1 h, t=2 h, t=4 h, t=6 h, t=8 h, and t=24 h (method: d-glucose hexokinase, hemolysate, AU640 Beckman Coulter). Blood sampling was performed by tail incision without anaesthesia.
Body weight was recorded daily. On days 6 and 28, total fat mass was measured by nuclear magnetic resonance (NMR) using a Bruker minispec (Ettlingen, Germany).
Statistical analyses were performed with Everstat 6.0 by repeated measures two-way ANOVA and Dunnett's post-hoc analyses (glucose profile) and 1-way-ANOVA, followed by Dunnett's post-hoc test (body weight, body fat). Differences versus vehicle-treated DIO control mice were considered statistically significant at the p<0.05 level.
Diet-induced obese female C57BL/6NCrl mice were administered daily in the afternoon, at the end of the light phase (12 h lights on) with 10, 30 and 100 μg/kg of SEQ ID NO: 9 or phosphate buffered solution (vehicle control on standard or high-fat diet) subcutaneously. On day 6 of treatment and at predefined time points, more blood samples were taken to measure blood glucose and generate the blood glucose profile over 24 h.
Female obese C57BL/6NCrl mice were treated for 4 weeks once daily subcutaneously in the afternoon, at the end of the light phase (12 h lights on) with 10, 30 or 100 μg/kg SEQ ID NO: 9 or vehicle. Body weight was recorded daily, and body fat content was determined before the start of treatment and after 4 weeks of treatment.

T2 sequence (P43220 24-463): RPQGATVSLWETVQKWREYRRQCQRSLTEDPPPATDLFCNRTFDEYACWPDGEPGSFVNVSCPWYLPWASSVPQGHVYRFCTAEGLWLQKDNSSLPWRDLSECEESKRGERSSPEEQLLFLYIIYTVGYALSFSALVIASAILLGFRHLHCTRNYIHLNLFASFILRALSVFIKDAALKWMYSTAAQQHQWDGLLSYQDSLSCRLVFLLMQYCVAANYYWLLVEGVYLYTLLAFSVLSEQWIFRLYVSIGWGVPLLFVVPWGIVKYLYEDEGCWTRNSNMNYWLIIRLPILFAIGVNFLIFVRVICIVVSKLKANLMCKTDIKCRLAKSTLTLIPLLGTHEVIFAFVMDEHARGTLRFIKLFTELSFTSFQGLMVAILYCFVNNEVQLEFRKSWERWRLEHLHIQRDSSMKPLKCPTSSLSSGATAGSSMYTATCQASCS

## CCCCCCCCCCCCCCCC(=O)N[C@@H](CCC(=O)NCCCC[C@H](NC(=O)[C@H](CCC(N)=O)NC(=O)[C@@H](NC(=O)[C@H](CO)NC(=O)[C@H](CC(C)C)NC(=O)[C@H](CC(=O)O)NC(=O)[C@H](CO)NC(=O)[C@@H](NC(=O)[C@H](Cc1ccccc1)NC(=O)[C@@H](NC(=O)CNC(=O)[C@H](CCC(=O)O)NC(=O)C(C)(C)NC(=O)[C@@H](N)Cc1ccc(O)cc1)[C@@H](C)O)[C@@H](C)O)[C@@H](C)CC)C(=O)N[C@@H](CCC(=O)O)C(=O)N[C@@H](CCCCN)C(=O)N[C@@H](CCCNC(=N)N)C(=O)N[C@@H](C)C(=O)N[C@@H](C)C(=O)NC(C)(C)C(=O)N[C@@H](CCC(=O)O)C(=O)N[C@@H](Cc1ccccc1)C(=O)N[C@H](C(=O)N[C@@H](CCC(=O)O)C(=O)N[C@@H](Cc1c[nH]c2ccccc12)C(=O)N[C@@H](CC(C)C)C(=O)N[C@@H](CCCCN)C(=O)N[C@@H](CC(N)=O)C(=O)N[C@H](C(=O)NCC(=O)N1CCC[C@H]1C(=O)N[C@@H](CO)C(=O)N[C@@H](CO)C(=O)NCC(=O)N[C@@H](C)C(=O)N1CCC[C@H]1C(=O)N1CCC[C@H]1C(=O)N1CCC[C@H]1C(=O)N[C@@H](CO)C(N)=O)[C@@H](C)O)[C@@H](C)CC)C(=O)O [SEQ ID NO: 9, Y-Aib-E-G-T-F-T-S-D-L-S-I-Q-K(γE-x53)-E-K-R-A-A-Aib-E-F-I-E-W-L-K-N-T-G-P-S-S-G-A-P-P-P-S-NH2] (H-Y[Aib]EGTFTSDLSIQK([γGlu-Palmitoyl])EKRAA[Aib]EFIEWLKNTGPSSGAPPPS-NH2)
[1]
  EC50: 5.7 pM
[2]
  EC50: 3.6 pM
[3]; 10 μg/kg s.c. once daily
  decrease of body weight, relative change from baseline: 13.3-16.4%
[3]; 10 μg/kg
  Bodyfat change: -4.2 ± 0.4 g
  Overall weight change: -5.0 ± 0.5 g
[3]; 30 μg/kg s.c. once daily
  decrease of body weight, relative change from baseline: 17.6-20.9%
[3]; 30 μg/kg
  Bodyfat change: -6.1 ± 0.4 g
  Overall weight change: -6.9 ± 0.5 g
[3]; 100 μg/kg s.c. once daily
  decrease of body weight, relative change from baseline: 21.7-22.7%
[3]; 100 μg/kg
  Bodyfat change: -6.4 ± 0.5 g
  Overall weight change: -7.3 ± 0.6 g
[3]; day 6 of treatment, 10, 30 and 100 μg/kg s.c. daily
  basal blood glucose levels compared to DIO control mice: dose-dependently decreased
